Where “and” joins values, the source holds several entries; their conditions need not be identical. Identical values can stand only once.
Species on record: Rattus norvegicus
Assay: DrugMatrix - Regimen: Daily Repeat
Type: toxicity, organism-based, Sprague-Dawley
Design: regimen Daily Repeat, gender Male, age 6-8 weeks
Settings: in vivo, po, route oral GAVAGE, vehicle .5 % CMC; for ABSOLUTE BASOPHIL / ABSOLUTE EOSINOPHIL / ABSOLUTE LYMPHOCYTE / ABSOLUTE MONOCYTE / BASOPHIL / EOSINOPHIL / ERYTHROCYTE COUNT / HEMATOCRIT / HEMOGLOBIN / LEUKOCYTE COUNT / LYMPHOCYTE / MEAN CORPUSCULAR HEMOGLOBIN / MEAN CORPUSCULAR HEMOGLOBIN CONCENTRATION / MEAN CORPUSCULAR VOLUME / MONOCYTE / NEUTROPHIL / PLATELET COUNT / ABSOLUTE SEGMENTED NEUTROPHIL / NUCLEATED RED BLOOD CELLS: tissue Blood; for ALANINE AMINOTRANSFERASE / ALBUMIN / ALKALINE PHOSPHATASE / ASPARTATE AMINOTRANSFERASE / BLOOD UREA NITROGEN / CARBON DIOXIDE / CHLORIDE / CHOLESTEROL / CREATINE PHOSPHOKINASE / CREATININE / GLUCOSE / LACTATE DEHYDROGENASE / LIPASE / PHOSPHORUS / POTASSIUM / SODIUM / TOTAL BILIRUBIN / TOTAL PROTEIN / URIC ACID: tissue Plasma
[1] = 0 mg/kg, 120 h, dose level Control, time 5 day
[2] = 0 mg/kg, […], dose level Control, time 14 day
[3] = 10 mg/kg, 72 h, dose level Low, time 3 day
[4] = 10 mg/kg, 120 h, dose level Low, time 5 day

CN(C)CCN(Cc1cccs1)c1ccccn1
ABSOLUTE BASOPHIL [1]: 150 cells/µL
ABSOLUTE EOSINOPHIL [1]: 110 cells/µL
ABSOLUTE LYMPHOCYTE [1]: 13400 cells/µL
ABSOLUTE MONOCYTE [1]: 330 cells/µL
BASOPHIL [1]: 0.78%
EOSINOPHIL [1]: 0.62%
ERYTHROCYTE COUNT [1]: 7.12 x10E6/uL
HEMATOCRIT [1]: 46.95%
HEMOGLOBIN [1]: 14.55 G/DL
LEUKOCYTE COUNT [1]: 16.58 x10E3/uL
LYMPHOCYTE [1]: 80.95%
MEAN CORPUSCULAR HEMOGLOBIN [1]: 20.45 pg
MEAN CORPUSCULAR HEMOGLOBIN CONCENTRATION [1]: 31.02 G/DL
MEAN CORPUSCULAR VOLUME [1]: 65.97 fL
MONOCYTE [1]: 1.97%
NEUTROPHIL [1]: 14.12%
PLATELET COUNT [1]: 1229.25 x10E3/uL
ALANINE AMINOTRANSFERASE [1]: 45 u/L
ALBUMIN [1]: 3.8 G/DL
ALKALINE PHOSPHATASE [1]: 388 u/L
ASPARTATE AMINOTRANSFERASE [1]: 72.25 u/L
BLOOD UREA NITROGEN [1]: 15.75 mg/dL
CARBON DIOXIDE [1]: 37 mmol/L
CHLORIDE [1]: 107 MEQ/L
CHOLESTEROL [1]: 73 mg/dL
CREATINE PHOSPHOKINASE [1]: 525.5 u/L
CREATININE [1]: 0.5 mg/dL
GLUCOSE [1]: 179.5 mg/dL
LACTATE DEHYDROGENASE [1]: 216.25 u/L
LIPASE [1]: 22.5 u/L
PHOSPHORUS [1]: 11.97 mg/dL
POTASSIUM [1]: 6.4 MEQ/L
SODIUM [1]: 151.25 MEQ/L
TOTAL BILIRUBIN [1]: 0.3 mg/dL
TOTAL PROTEIN [1]: 6.55 G/DL
URIC ACID [1]: 1.35 mg/dL
ABSOLUTE BASOPHIL [2]: 120 cells/µL
ABSOLUTE EOSINOPHIL [2]: 40 cells/µL
ABSOLUTE LYMPHOCYTE [2]: 10100 cells/µL
ABSOLUTE MONOCYTE [2]: 190 cells/µL
BASOPHIL [2]: 1.1%
EOSINOPHIL [2]: 0.33%
ERYTHROCYTE COUNT [2]: 7.86 x10E6/uL
HEMATOCRIT [2]: 48.5%
HEMOGLOBIN [2]: 15.4 G/DL
LEUKOCYTE COUNT [2]: 11.73 x10E3/uL
LYMPHOCYTE [2]: 85.92%
MEAN CORPUSCULAR HEMOGLOBIN [2]: 19.55 pg
MEAN CORPUSCULAR HEMOGLOBIN CONCENTRATION [2]: 31.72 G/DL
MEAN CORPUSCULAR VOLUME [2]: 61.67 fL
MONOCYTE [2]: 1.6%
NEUTROPHIL [2]: 10.2%
PLATELET COUNT [2]: 1212.75 x10E3/uL
ALANINE AMINOTRANSFERASE [2]: 47 u/L
ALBUMIN [2]: 3.85 G/DL
ALKALINE PHOSPHATASE [2]: 356.5 u/L
ASPARTATE AMINOTRANSFERASE [2]: 87.75 u/L
BLOOD UREA NITROGEN [2]: 14.25 mg/dL
CARBON DIOXIDE [2]: 36.5 mmol/L
CHLORIDE [2]: 106.5 MEQ/L
CHOLESTEROL [2]: 63.25 mg/dL
CREATINE PHOSPHOKINASE [2]: 324.5 u/L
CREATININE [2]: 0.65 mg/dL
GLUCOSE [2]: 162.75 mg/dL
LACTATE DEHYDROGENASE [2]: 299 u/L
LIPASE [2]: 16.75 u/L
PHOSPHORUS [2]: 10.45 mg/dL
POTASSIUM [2]: 6.6 MEQ/L
SODIUM [2]: 152 MEQ/L
TOTAL BILIRUBIN [2]: 0.25 mg/dL
TOTAL PROTEIN [2]: 6.7 G/DL
URIC ACID [2]: 1.15 mg/dL
ABSOLUTE BASOPHIL [3]: 0 CELLS/uL
ABSOLUTE EOSINOPHIL [3]: 27 CELLS/uL
ABSOLUTE LYMPHOCYTE [3]: 9772.67 CELLS/uL
ABSOLUTE MONOCYTE [3]: 248.67 CELLS/uL
ABSOLUTE SEGMENTED NEUTROPHIL [3]: 751.67 CELLS/uL
BASOPHIL [3]: 0%
EOSINOPHIL [3]: 0.33%
ERYTHROCYTE COUNT [3]: 4.84 x10E6/uL
HEMATOCRIT [3]: 31.57%
HEMOGLOBIN [3]: 12.13 G/DL
LEUKOCYTE COUNT [3]: 10.8 x10E3/uL
LYMPHOCYTE [3]: 90.33%
MEAN CORPUSCULAR HEMOGLOBIN [3]: 25.1 pg
MEAN CORPUSCULAR HEMOGLOBIN CONCENTRATION [3]: 38.43 G/DL
MEAN CORPUSCULAR VOLUME [3]: 65.27 fL
MONOCYTE [3]: 2.33%
NEUTROPHIL [3]: 7%
NUCLEATED RED BLOOD CELLS [3]: 0 /100WBC
PLATELET COUNT [3]: 1127 x10E3/uL
ALANINE AMINOTRANSFERASE [3]: 57.33 u/L
ALBUMIN [3]: 3.9 G/DL
ALKALINE PHOSPHATASE [3]: 413.67 u/L
ASPARTATE AMINOTRANSFERASE [3]: 90.67 u/L
BLOOD UREA NITROGEN [3]: 16 mg/dL
CARBON DIOXIDE [3]: 30.33 mmol/L
CHLORIDE [3]: 98.33 MEQ/L
CHOLESTEROL [3]: 86 mg/dL
CREATINE PHOSPHOKINASE [3]: 368 u/L
CREATININE [3]: 0.25 mg/dL
GLUCOSE [3]: 147.33 mg/dL
LACTATE DEHYDROGENASE [3]: 103 u/L
LIPASE [3]: 10.67 u/L
PHOSPHORUS [3]: 10.53 mg/dL
POTASSIUM [3]: 5.88 MEQ/L
SODIUM [3]: 141.1 MEQ/L
TOTAL BILIRUBIN [3]: 0.23 mg/dL
TOTAL PROTEIN [3]: 6.23 G/DL
URIC ACID [3]: 0.43 mg/dL
ABSOLUTE SEGMENTED NEUTROPHIL [4]: 1373 CELLS/uL
BASOPHIL [4]: 0.85% and 0%
EOSINOPHIL [4]: 0.43% and 0.33%
ERYTHROCYTE COUNT [4]: 6.77 x10E6/uL and 5.32 x10E6/uL
HEMATOCRIT [4]: 44.08% and 33.07%
HEMOGLOBIN [4]: 13.62 G/DL and 12.93 G/DL
LEUKOCYTE COUNT [4]: 14.73 x10E3/uL and 11.23 x10E3/uL
LYMPHOCYTE [4]: 80.67% and 87%
MEAN CORPUSCULAR HEMOGLOBIN [4]: 20.1 pg and 24.37 pg
MEAN CORPUSCULAR HEMOGLOBIN CONCENTRATION [4]: 30.93 G/DL and 39.13 G/DL
MEAN CORPUSCULAR VOLUME [4]: 65 fL and 62.23 fL
MONOCYTE [4]: 2.75% and 0.33%
NEUTROPHIL [4]: 13.88% and 12.33%
NUCLEATED RED BLOOD CELLS [4]: 0 /100WBC
PLATELET COUNT [4]: 1086.75 x10E3/uL and 1423 x10E3/uL
ALANINE AMINOTRANSFERASE [4]: 52.75 u/L and 43 u/L
ALBUMIN [4]: 3.67 G/DL and 4 G/DL
ALKALINE PHOSPHATASE [4]: 395.75 u/L and 410 u/L
ASPARTATE AMINOTRANSFERASE [4]: 91 u/L and 82.67 u/L
BLOOD UREA NITROGEN [4]: 13.75 mg/dL and 14.67 mg/dL
CARBON DIOXIDE [4]: 36.75 mmol/L and 34.67 mmol/L
CHLORIDE [4]: 105.75 MEQ/L and 99.33 MEQ/L
CHOLESTEROL [4]: 84.75 mg/dL and 72 mg/dL
CREATINE PHOSPHOKINASE [4]: 591 u/L and 571.33 u/L
CREATININE [4]: 0.4 mg/dL and 0.23 mg/dL
GLUCOSE [4]: 181.5 mg/dL and 137.33 mg/dL
LACTATE DEHYDROGENASE [4]: 125.75 u/L and 163.67 u/L
LIPASE [4]: 18.5 u/L and 7.33 u/L
PHOSPHORUS [4]: 11.68 mg/dL and 12.63 mg/dL
POTASSIUM [4]: 6.62 MEQ/L and 6.41 MEQ/L
SODIUM [4]: 151 MEQ/L and 143.33 MEQ/L
TOTAL BILIRUBIN [4]: 0.28 mg/dL and 0.13 mg/dL
TOTAL PROTEIN [4]: 6.15 G/DL and 6.1 G/DL
URIC ACID [4]: 1.28 mg/dL and 0.87 mg/dL
